IC50 data for 1 molecule are collected here from ChEMBL document CHEMBL1201861, “Genomics of Drug Sensitity in Cancer screening data, Wellcome Trust Sanger Institute”.

The first assay has as its system P30-OHK. Kind of assay: cells. It counts as functional, cell-based, Homo sapiens. The conditions noted are these: Homo sapiens, P30-OHK.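 Also: growth inhibition of the P30-OHK cell line, read out with a cell viability assay.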
Description: SANGER: Inhibition of human P30-OHK cell growth in a cell viability assay.
On to `Cc1ccc(-n2nc(C(C)(C)C)cc2NC(=O)Nc2ccc(OCCN3CCOCC3)c3ccccc23)cc1` [DORAMAPIMOD], for which the IC50 – broadly, the midpoint of a concentration-inhibition curve – is greater than 10 µM.

For the next assay, the system named is NCI-H1838. In words: cells. It counts as functional, cell-based, Homo sapiens. The following applies: Homo sapiens, NCI-H1838.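 Also: growth inhibition of NCI-H1838 cells, determined with a cell viability readout.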
Description: SANGER: Inhibition of human NCI-H1838 cell growth in a cell viability assay.
As for `Cc1ccc(-n2nc(C(C)(C)C)cc2NC(=O)Nc2ccc(OCCN3CCOCC3)c3ccccc23)cc1` [DORAMAPIMOD], the half-maximal inhibitory concentration (IC50) was greater than 10 µM.

Another assay deals with BV-173. Kind of assay: cells. It counts as functional, cell-based, Homo sapiens. The conditions noted are these: Homo sapiens, BV-173.
Description: SANGER: Inhibition of human BV-173 cell growth in a cell viability assay.
In turn, `Cc1ccc(-n2nc(C(C)(C)C)cc2NC(=O)Nc2ccc(OCCN3CCOCC3)c3ccccc23)cc1` [DORAMAPIMOD] gave an IC50 greater than 10 µM.

For the next assay, the system named is HAL-01. In words: cells. The following applies: Homo sapiens, HAL-01. It counts as functional, cell-based, Homo sapiens.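 Also: growth inhibition of human HAL-01 cells, read out with a cell viability assay.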
Description: SANGER: Inhibition of human HAL-01 cell growth in a cell viability assay.
`Cc1ccc(-n2nc(C(C)(C)C)cc2NC(=O)Nc2ccc(OCCN3CCOCC3)c3ccccc23)cc1` [DORAMAPIMOD] returned an IC50 greater than 10 µM.

Another assay relates to RPMI-8226. In words: cells. It counts as functional, cell-based, Homo sapiens. The conditions noted are these: Homo sapiens, RPMI-8226.
Description: SANGER: Inhibition of human RPMI-8226 cell growth in a cell viability assay.
In turn, `Cc1ccc(-n2nc(C(C)(C)C)cc2NC(=O)Nc2ccc(OCCN3CCOCC3)c3ccccc23)cc1` [DORAMAPIMOD] displayed an IC50 greater than 10 µM.

Another assay deals with CW-2. In words: cells. It counts as functional, cell-based, Homo sapiens. The conditions noted are these: Homo sapiens, CW-2.
Description: SANGER: Inhibition of human CW-2 cell growth in a cell viability assay.
Take `Cc1ccc(-n2nc(C(C)(C)C)cc2NC(=O)Nc2ccc(OCCN3CCOCC3)c3ccccc23)cc1` [DORAMAPIMOD]: the IC50 is greater than 10 µM.

For another assay, the system named is D283 Med. In words: cells. It counts as functional, cell-based, Homo sapiens. The following applies: Homo sapiens, D283 Med.
Description: SANGER: Inhibition of human D-283MED cell growth in a cell viability assay.
`Cc1ccc(-n2nc(C(C)(C)C)cc2NC(=O)Nc2ccc(OCCN3CCOCC3)c3ccccc23)cc1` [DORAMAPIMOD] yielded an IC50 greater than 10 µM.

For a further assay, the system named is ES7. Kind of assay: cells. The following applies: Homo sapiens, ES7. It counts as functional, cell-based, Homo sapiens.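 Also: growth inhibition of cultured human ES7 cells, read out as cell viability.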
Description: SANGER: Inhibition of human ES7 cell growth in a cell viability assay.
Molecule `Cc1ccc(-n2nc(C(C)(C)C)cc2NC(=O)Nc2ccc(OCCN3CCOCC3)c3ccccc23)cc1` [DORAMAPIMOD] registered an IC50 greater than 10 µM.

The subject of another assay is TE-8. Kind of assay: cells. It counts as functional, cell-based, Homo sapiens. The following applies: Homo sapiens, TE-8.
Description: SANGER: Inhibition of human TE-8 cell growth in a cell viability assay.
Take `Cc1ccc(-n2nc(C(C)(C)C)cc2NC(=O)Nc2ccc(OCCN3CCOCC3)c3ccccc23)cc1` [DORAMAPIMOD]: the IC50 is greater than 10 µM.

The subject of another assay is NEC8. Kind of assay: cells. It counts as functional, cell-based, Homo sapiens. The conditions noted are these: Homo sapiens, NEC8.
Description: SANGER: Inhibition of human NEC8 cell growth in a cell viability assay.
Molecule `Cc1ccc(-n2nc(C(C)(C)C)cc2NC(=O)Nc2ccc(OCCN3CCOCC3)c3ccccc23)cc1` [DORAMAPIMOD] had an IC50 greater than 10 µM.

A further assay relates to GCIY. In words: cells. It counts as functional, cell-based, Homo sapiens. The conditions noted are these: Homo sapiens, GCIY.
Description: SANGER: Inhibition of human GCIY cell growth in a cell viability assay.
The molecule `Cc1ccc(-n2nc(C(C)(C)C)cc2NC(=O)Nc2ccc(OCCN3CCOCC3)c3ccccc23)cc1` [DORAMAPIMOD] showed a concentration for half-maximal inhibition (IC50) greater than 10 µM.

For the next assay, the system named is TE-12. Kind of assay: cells. It counts as functional, cell-based, Homo sapiens. The conditions noted are these: Homo sapiens, TE-12.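 Also: growth inhibition of TE-12 cells, read out by a cell viability assay.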
Description: SANGER: Inhibition of human TE-12 cell growth in a cell viability assay.
In turn, `Cc1ccc(-n2nc(C(C)(C)C)cc2NC(=O)Nc2ccc(OCCN3CCOCC3)c3ccccc23)cc1` [DORAMAPIMOD] registered an IC50 greater than 10 µM.

Another assay relates to A101D. Kind of assay: cells. It counts as functional, cell-based, Homo sapiens. The following applies: Homo sapiens, A101D.
Description: SANGER: Inhibition of human A101D cell growth in a cell viability assay.
`Cc1ccc(-n2nc(C(C)(C)C)cc2NC(=O)Nc2ccc(OCCN3CCOCC3)c3ccccc23)cc1` [DORAMAPIMOD] displayed an IC50 greater than 10 µM.

In a further assay the test system is NCI-H1355. In words: cells. The conditions noted are these: Homo sapiens, NCI-H1355. It counts as functional, cell-based, Homo sapiens.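 Also: growth inhibition of human NCI-H1355 cells, read out by a cell viability assay.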
Description: SANGER: Inhibition of human NCI-H1355 cell growth in a cell viability assay.
`Cc1ccc(-n2nc(C(C)(C)C)cc2NC(=O)Nc2ccc(OCCN3CCOCC3)c3ccccc23)cc1` [DORAMAPIMOD] came in with an IC50 greater than 10 µM.

The test system of another assay is LNCaP-Clone-FGC. Kind of assay: cells. It counts as functional, cell-based, Homo sapiens. The conditions noted are these: Homo sapiens, LNCaP-Clone-FGC.
Description: SANGER: Inhibition of human LNCaP-Clone-FGC cell growth in a cell viability assay.
The molecule `Cc1ccc(-n2nc(C(C)(C)C)cc2NC(=O)Nc2ccc(OCCN3CCOCC3)c3ccccc23)cc1` [DORAMAPIMOD] registered an IC50 greater than 10 µM.

The next assay concerns U-87 MG. In words: cells. The following applies: Homo sapiens, U-87 MG. It counts as functional, cell-based, Homo sapiens, U-87MG ATCC.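 Also: growth inhibition of the cells measured with a viability assay.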
Description: SANGER: Inhibition of human U-87-MG cell growth in a cell viability assay.
The molecule `Cc1ccc(-n2nc(C(C)(C)C)cc2NC(=O)Nc2ccc(OCCN3CCOCC3)c3ccccc23)cc1` [DORAMAPIMOD] had an IC50 greater than 10 µM.

The next assay deals with ETK-1. Kind of assay: cells. It counts as functional, cell-based, Homo sapiens. The conditions noted are these: Homo sapiens, ETK-1.
Description: SANGER: Inhibition of human ETK-1 cell growth in a cell viability assay.
`Cc1ccc(-n2nc(C(C)(C)C)cc2NC(=O)Nc2ccc(OCCN3CCOCC3)c3ccccc23)cc1` [DORAMAPIMOD]: the IC50 was greater than 10 µM.

The test system of the next assay is SF-268. In words: cells. It counts as functional, cell-based, Homo sapiens. The conditions noted are these: Homo sapiens, SF-268.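 Also: growth inhibition of SF-268 cells determined with a cell viability assay.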
Description: SANGER: Inhibition of human SF268 cell growth in a cell viability assay.
Turning to `Cc1ccc(-n2nc(C(C)(C)C)cc2NC(=O)Nc2ccc(OCCN3CCOCC3)c3ccccc23)cc1` [DORAMAPIMOD], the half-maximal inhibitory concentration (IC50) is greater than 10 µM.

Another assay has as its system EOL1. Kind of assay: cells. The conditions noted are these: Homo sapiens, EOL1. It counts as functional, cell-based, Homo sapiens.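 Also: growth inhibition of EoL-1 cells, read out by a cell viability assay.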
Description: SANGER: Inhibition of human EoL-1-cell cell growth in a cell viability assay.
The molecule `Cc1ccc(-n2nc(C(C)(C)C)cc2NC(=O)Nc2ccc(OCCN3CCOCC3)c3ccccc23)cc1` [DORAMAPIMOD] gave a half-maximal inhibitory concentration (IC50) of 0.348 µM.

Another assay relates to MSTO-211H. Kind of assay: cells. The following applies: Homo sapiens, MSTO-211H. It counts as functional, cell-based, Homo sapiens.
Description: SANGER: Inhibition of human MSTO-211H cell growth in a cell viability assay.
As to `Cc1ccc(-n2nc(C(C)(C)C)cc2NC(=O)Nc2ccc(OCCN3CCOCC3)c3ccccc23)cc1` [DORAMAPIMOD], the IC50 is greater than 10 µM.

A further assay has as its system SK-N-DZ. In words: cells. It counts as functional, cell-based, Homo sapiens. The conditions noted are these: Homo sapiens, SK-N-DZ; read-out: IC50.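 Also: growth inhibition of the cancer cell line, read out through a viability assay.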
Description: SANGER: Inhibition of human SK-N-DZ cell growth in a cell viability assay.
`Cc1ccc(-n2nc(C(C)(C)C)cc2NC(=O)Nc2ccc(OCCN3CCOCC3)c3ccccc23)cc1` [DORAMAPIMOD]: the 50% inhibitory concentration (IC50) is greater than 10 µM.

For the next assay, the system named is KINGS-1. Kind of assay: cells. It counts as functional, cell-based, Homo sapiens. The conditions noted are these: Homo sapiens, KINGS-1.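 Also: cell viability assay measuring suppression of KINGS-1 cell growth.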
Description: SANGER: Inhibition of human KINGS-1 cell growth in a cell viability assay.
`Cc1ccc(-n2nc(C(C)(C)C)cc2NC(=O)Nc2ccc(OCCN3CCOCC3)c3ccccc23)cc1` [DORAMAPIMOD]: the IC50 was greater than 10 µM.

In a further assay the test system is COLO-320-HSR. Kind of assay: cells. The following applies: Homo sapiens, COLO-320-HSR. It counts as functional, cell-based, Homo sapiens.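 Also: growth inhibition of COLO-320-HSR cells, determined with a cell viability assay.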
Description: SANGER: Inhibition of human COLO-320-HSR cell growth in a cell viability assay.
Take `Cc1ccc(-n2nc(C(C)(C)C)cc2NC(=O)Nc2ccc(OCCN3CCOCC3)c3ccccc23)cc1` [DORAMAPIMOD]: the IC50 is greater than 10 µM.

The next assay has as its system HEL. In words: cells. It counts as functional, cell-based, Homo sapiens. The following applies: Homo sapiens, HEL.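 Also: growth inhibition of HEL cells, read out with a cell viability assay.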
Description: SANGER: Inhibition of human HEL cell growth in a cell viability assay.
With `Cc1ccc(-n2nc(C(C)(C)C)cc2NC(=O)Nc2ccc(OCCN3CCOCC3)c3ccccc23)cc1` [DORAMAPIMOD], the 50% inhibitory concentration (IC50) is greater than 10 µM.
